Test results from the Kinase Knowledgebase extract (Sharma et al. 2016).
Converted amounts (≈) assume the structure as drawn. “And” between values parts separate entries of the source, which are not always exact repeats. Equal entries are not always repeated.

What was measured:
EGFR (human) [1] = target: EGFR (human) (UniProt P00533); settings: hl-60
EGFR (human) [2] = target: EGFR (human) (UniProt P00533); settings: colo-205
EGFR (human) [3] = target: EGFR (human) (UniProt P00533); settings: a549
EGFR (human) [4] = target: EGFR (human) (UniProt P00533); settings: ccrf-cem leukemia cell
EGFR (human) [5] = target: EGFR (human) (UniProt P00533); settings: mip
EGFR (human) [6] = target: EGFR (human) (UniProt P00533); settings: lx1
EGFR (human) [7] = target: EGFR (human) (UniProt P00533); settings: sw948
EGFR (human) [8] = target: EGFR (human) (UniProt P00533); settings: ccl228
EGFR (human) [9] = target: EGFR (human) (UniProt P00533); settings: a431
EGFR (human) [10] = target: EGFR (human) (UniProt P00533); settings: ls174t
EGFR (human) [11] = target: EGFR (human) (UniProt P00533); settings: pc-3
EGFR (human) [12] = target: EGFR (human) (UniProt P00533); settings: du145
EGFR (human) [13] = target: EGFR (human) (UniProt P00533); settings: lncap
EGFR (human) [14] = target: EGFR (human) (UniProt P00533); settings: htb161
EGFR (human) [15] = target: EGFR (human) (UniProt P00533); settings: hct-15
EGFR (human) [16] = target: EGFR (human) (UniProt P00533); settings: a2780ddp
EGFR (human) [17] = target: EGFR (human) (UniProt P00533); settings: b7474
EGFR (human) [18] = target: EGFR (human) (UniProt P00533); settings: caco2
EGFR (human) [19] = target: EGFR (human) (UniProt P00533); settings: cx-1 colon
EGFR [20] = target: EGFR (UniProt P00533)
EGFR, sequence (P00533 whole entry, looked up): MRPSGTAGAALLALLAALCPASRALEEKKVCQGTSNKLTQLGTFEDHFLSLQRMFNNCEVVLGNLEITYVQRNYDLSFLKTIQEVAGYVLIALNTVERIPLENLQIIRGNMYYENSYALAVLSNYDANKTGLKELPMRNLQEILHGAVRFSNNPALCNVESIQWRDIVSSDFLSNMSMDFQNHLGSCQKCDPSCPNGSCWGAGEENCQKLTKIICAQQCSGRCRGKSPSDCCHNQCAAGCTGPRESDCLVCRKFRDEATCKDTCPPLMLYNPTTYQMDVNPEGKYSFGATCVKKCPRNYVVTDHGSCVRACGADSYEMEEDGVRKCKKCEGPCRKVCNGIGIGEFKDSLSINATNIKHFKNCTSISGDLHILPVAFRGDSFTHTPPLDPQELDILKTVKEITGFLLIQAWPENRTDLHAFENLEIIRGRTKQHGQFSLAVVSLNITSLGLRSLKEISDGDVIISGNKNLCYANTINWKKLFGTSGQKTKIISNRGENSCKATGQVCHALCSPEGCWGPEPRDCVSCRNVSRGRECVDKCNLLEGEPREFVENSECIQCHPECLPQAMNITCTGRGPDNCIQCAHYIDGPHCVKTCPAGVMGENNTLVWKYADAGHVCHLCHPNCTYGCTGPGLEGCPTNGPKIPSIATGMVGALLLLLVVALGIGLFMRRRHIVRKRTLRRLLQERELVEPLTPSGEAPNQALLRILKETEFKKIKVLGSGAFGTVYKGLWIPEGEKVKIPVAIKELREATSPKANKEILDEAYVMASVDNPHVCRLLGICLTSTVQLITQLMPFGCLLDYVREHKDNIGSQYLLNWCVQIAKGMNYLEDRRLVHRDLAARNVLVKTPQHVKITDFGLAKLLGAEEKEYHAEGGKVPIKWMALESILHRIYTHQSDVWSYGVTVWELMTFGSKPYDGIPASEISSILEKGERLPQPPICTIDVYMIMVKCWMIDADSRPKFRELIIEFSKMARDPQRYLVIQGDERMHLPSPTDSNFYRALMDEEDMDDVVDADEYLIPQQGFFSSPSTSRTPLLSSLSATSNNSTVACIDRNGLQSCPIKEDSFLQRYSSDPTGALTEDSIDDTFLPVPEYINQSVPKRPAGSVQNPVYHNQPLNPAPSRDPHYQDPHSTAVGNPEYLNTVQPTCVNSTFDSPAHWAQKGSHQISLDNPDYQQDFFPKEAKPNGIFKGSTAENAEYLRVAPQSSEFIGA

EGFR (human) [21] = target: EGFR (human) (UniProt P00533); settings: a2780s
EGFR (human) [22] = target: EGFR (human) (UniProt P00533); settings: t-47d
EGFR (human) [23] = target: EGFR (human) (UniProt P00533); settings: nfc
EGFR (human) [24] = target: EGFR (human) (UniProt P00533); settings: nhek
EGFR [25] = target: EGFR (UniProt P00533); remark: listed apart in the source

EGFR (human), sequence (P00533 whole entry, looked up): as above

COc1cc2ncc(C#N)c(Nc3cccc(C#N)c3)c2cc1OC
IC50 (EGFR (human) [1]): > 1 µg/mL
IC50 (EGFR (human) [2]): > 100 µg/mL
IC50 (EGFR (human) [3]): 100 µg/mL (≈ 303 µM)
IC50 (EGFR (human) [4]): > 100 µg/mL
IC50 (EGFR (human) [5]): > 100 µg/mL
IC50 (EGFR (human) [6]): 100 µg/mL (≈ 303 µM)
IC50 (EGFR (human) [7]): > 100 µg/mL
IC50 (EGFR (human) [8]): > 100 µg/mL

COc1cc2ncc(C#N)c(Oc3cccc(Br)c3)c2cc1OC
IC50 (EGFR (human) [3]): > 100 µg/mL
IC50 (EGFR (human) [4]): > 100 µg/mL
IC50 (EGFR (human) [5]): > 100 µg/mL
IC50 (EGFR (human) [6]): > 100 µg/mL
IC50 (EGFR (human) [9]): 100 µg/mL
IC50 (EGFR (human) [10]): > 100 µg/mL
IC50 (EGFR (human) [11]): > 100 µg/mL
IC50 (EGFR (human) [7]): > 100 µg/mL

CC#CC(=O)Nc1ccc2ncc(C#N)c(Nc3cccc(Br)c3)c2c1
IC50 (EGFR (human) [1]): > 100 µg/mL
IC50 (EGFR (human) [2]): > 100 µg/mL
IC50 (EGFR (human) [12]): 7.81 µg/mL (≈ 19.3 µM)
IC50 (EGFR (human) [13]): > 33 µg/mL and 90 µg/mL
IC50 (EGFR (human) [3]): > 100 µg/mL
IC50 (EGFR (human) [14]): 7.89 µg/mL (≈ 19.5 µM)
IC50 (EGFR (human) [4]): > 100 µg/mL
IC50 (EGFR (human) [5]): 100 µg/mL (≈ 247 µM)
IC50 (EGFR (human) [6]): > 100 µg/mL
IC50 (EGFR (human) [9]): 38.1 µg/mL
IC50 (EGFR (human) [10]): > 33 µg/mL and 87 µg/mL
IC50 (EGFR (human) [15]): > 33 µg/mL and 98.9 µg/mL
IC50 (EGFR (human) [16]): 60.4 µg/mL (≈ 149 µM)
IC50 (EGFR (human) [17]): > 33 µg/mL and 95.7 µg/mL
IC50 (EGFR (human) [11]): > 100 µg/mL
IC50 (EGFR (human) [18]): 5.63 µg/mL (≈ 13.9 µM)
IC50 (EGFR (human) [19]): 81.9 µg/mL (≈ 202 µM)
IC50 (EGFR [20]): 9000 nM
IC50 (EGFR (human) [7]): > 100 µg/mL
IC50 (EGFR (human) [21]): 9.8 µg/mL (≈ 24.2 µM)
IC50 (EGFR (human) [22]): > 100 µg/mL
IC50 (EGFR (human) [8]): > 100 µg/mL
IC50 (EGFR (human) [23]): > 100 µg/mL
IC50 (EGFR (human) [24]): 9000 nM

COc1cc2ncc(C#N)c(Nc3ccc(F)cc3)c2cc1OC
IC50 (EGFR (human) [11]): > 100 µg/mL
IC50 (EGFR (human) [7]): > 100 µg/mL
IC50 (EGFR (human) [22]): > 100 µg/mL

COc1cc2ncc(C#N)c(Nc3cccc(SC)c3)c2cc1OC
IC50 (EGFR [25]): 10 nM
IC50 (EGFR (human) [9]): 14.3 µg/mL and 6.95 µg/mL

COC/C=C/C(=O)Nc1ccc2ncc(C#N)c(Nc3cccc(Br)c3)c2c1
IC50 (EGFR [25]): 80 nM
IC50 (EGFR (human) [9]): 0.8 µg/mL

N#Cc1cnc2ccc(N)cc2c1Nc1cccc(Br)c1
IC50 (EGFR (human) [2]): > 100 µg/mL
IC50 (EGFR (human) [7]): > 100 µg/mL

COc1cc2ncc(C#N)c(Nc3cccc(Br)c3)c2cc1NC(=O)C#CCN(C)C
IC50 (EGFR [25]): 0.008 nM

COc1cc2ncc(C#N)c(Nc3cccc(Cl)c3)c2cc1OC
IC50 (EGFR (human) [9]): 240 nM and 0.71 µg/mL

CCN1CCN(CC#CC(=O)Nc2ccc3ncc(C#N)c(Nc4cccc(Br)c4)c3c2)CC1
IC50 (EGFR (human) [9]): 800 nM

CNC/C=C/C(=O)Nc1ccc2ncc(C#N)c(Nc3cccc(Br)c3)c2c1
IC50 (EGFR (human) [9]): > 10 µg/mL

N#Cc1cnc2ccc([N+](=O)[O-])cc2c1Nc1cccc(Br)c1
IC50 (EGFR (human) [13]): > 100 µg/mL
IC50 (EGFR (human) [3]): > 100 µg/mL
IC50 (EGFR (human) [4]): > 100 µg/mL
IC50 (EGFR (human) [6]): > 100 µg/mL
IC50 (EGFR (human) [15]): 100 µg/mL (≈ 271 µM)
IC50 (EGFR (human) [11]): > 100 µg/mL
IC50 (EGFR (human) [19]): > 100 µg/mL
IC50 (EGFR (human) [7]): > 100 µg/mL
IC50 (EGFR (human) [8]): > 100 µg/mL
IC50 (EGFR (human) [23]): > 100 µg/mL

COc1cc2ncc(C#N)c(Nc3cccc(Br)c3)c2cc1OC
IC50 (EGFR (human) [9]): 300 nM

CC(=O)Nc1cc(CN(C)C)c2ncc(C#N)c(Nc3cccc(Br)c3)c2c1
IC50 (EGFR (human) [9]): > 5 µg/mL
